We go through nine compounds from patent US20020041889A1, “ENHANCING AGENT FOR DEGRADATION OF DESMOSOMES OR STRATUM CORNEUM DESQUAMATION” (priority 1997, published 2002).

For the assay, the system named is desmoglein in a stratum corneum sheet (decomposition by trypsin-like and chymotrypsin-like enzymes). In words: Percentage of residual desmoglein in stratum corneum sheets (SDS-PAGE / immunoblot with anti-desmoglein antibody). In kind it is biochemical, human. The settings on record: stratum corneum sheet (2 mg) from healthy subjects coated with 5 μl of a 5% aqueous solution of test compound; moisture content not greater than 30%; 37° C. for one week; average of three measurements; control = 100.00. The protocol:
Method of Evaluation (the percentage of residual desmoglein in stratum corneum sheets) This method of evaluation serves to evaluate the degree of decomposition of desmoglein in a stratum corneum sheet by trypsin-like and chymotrypsin-like enzymes, i.e., the degree of stratum corneum desquamation. […] Stratum corneum sheets were peeled from healthy subjects and soaked in an antiseptic and fungicidal solution (containing 60 μl/ml of kanamycin and 0.5% NaN3) for 30 seconds. Both sides of a stratum corneum sheet weighing 2 mg were coated with 5 μl of a 5% aqueous solution containing each of the test compounds shown in Table I below. A stratum corneum sheet coated with an aqueous solution containing no test compound was regarded as a control. These stratum corneum sheets were subjected to the following procedure. The stratum corneum sheets prepared in the above-described manner were placed under such conditions that the stratum corneum would have a moisture content of not greater than 30% at which the degradation of desmosomes was insufficient, and allowed to stand at 37° C. for one week. Thereafter, using 0.5 ml of a 0.1 M Tris buffer (pH 9) containing 9 M urea, 2% SDS and 1% mercaptoethanol, each of the stratum corneum sheets was extracted at 37° C. for 15 hours. Then, 0.7 ml of a sample buffer for SDS-PAGE (a two-fold concentrated Laemmli solution) was added to the resulting extract and heated for 15 minutes. 10 μl of this solution was taken and subjected to electrophoresis in a gel having a concentration of 7.5%. After electrophoresis, the proteins were transferred to a PVDF membrane and immunologically stained with an anti-desmoglein antibody and alkaline phosphatase-labelled secondary (anti-mouse lg) antibody. Then, the labelled protein was visualized with NBT/BCIP substrate. Thus, the amount of the desired protein was determined. Then, the above evaluation process was repeated except that the above-mentioned 5% aqueous solution of each of the test compounds was replaced with an aqueous solution which had been adjusted to contain 0.1% of L-alanine and 2.9% of N,N,N-trimethylglycine.

In the case of `CC(N)C(=O)O` (racemic) [DL-Alanine], the “Percentage of residual desmoglein” value was found to be 54.55%.

For `NC(CO)C(=O)O` (racemic) [DL-Serine], the “Percentage of residual desmoglein” value is reported as 69.44%.

As for `C[C@@H](O)[C@H](N)C(=O)O` (racemic) [DL-Threonine], the “Percentage of residual desmoglein” value came to 97.50%.

Turning to `O=C(O)[C@@H]1CC(O)CN1` (stereo partly drawn) [4-Hydroxy-L-proline], the “Percentage of residual desmoglein” value amounted to 83.04%.

For the compound `NCC(=O)O` [Glycine], the “Percentage of residual desmoglein” value is 84.13%.

Turning to `N[C@@H](CO)C(=O)O` [L-Serine], the “Percentage of residual desmoglein” value came to 58.41%.

`C[C@@H](O)[C@H](N)C(=O)O` [L-Threonine]: the “Percentage of residual desmoglein” value is 90.91%.

As to `C[N+](C)(C)CC(=O)[O-]` [N,N,N-Trimethylglycine], the “Percentage of residual desmoglein” value worked out at 86.08%.

Regarding `CCCCCCCCCCCC(=O)NCC(=O)[O-].[K+]` [N-Dodecanoylglycine potassium salt], the “Percentage of residual desmoglein” value amounted to 78.58%.
